Laboratory results as given in ChEMBL document CHEMBL5154681, “Small Amphiphilic Peptides: Activity Against a Broad Range of Drug-Resistant Bacteria and Structural Insight into Membranolytic Properties” (J Med Chem, 2022).
In brackets after ≈: the same amount, converted by molar mass. Activity calls are given as the source filed them. The calls are words filed in the database; no cut-off is given here. Square brackets hold non-standard residues; d marks the D form. Peptide text beside a SMILES is read from it. Dip = N[C@H](C(=O)O)C(c1ccccc1)c1ccccc1; 2Nal = N[C@@H](Cc1ccc2ccccc2c1)C(=O)O

Experiments:
[1] = test system: Enterococcus faecium; test: Antibacterial activity against vancomycin-resistant Enterococcus faecium ATCC 700221 incubated for 24 hrs by microtiter plate method; format: functional
[2] = test system: Enterococcus faecalis; test: Antibacterial activity against Enterococcus faecalis ATCC 29212 incubated for 24 hrs by microtiter plate method; format: functional
[3] = test system: Enterococcus faecium; test: Antibacterial activity against Enterococcus faecium ATCC 27270 incubated for 24 hrs by microtiter plate method; format: functional
[4] = test system: Bacillus subtilis; test: Antibacterial activity against Bacillus subtilis ATCC 6633 incubated for 24 hrs by microtiter plate method; format: functional
[5] = test system: Streptococcus pneumoniae; test: Antibacterial activity against […] ATCC 49619 incubated for 24 hrs by microtiter plate method; format: functional
[6] = test system: Enterococcus faecalis; test: Antibacterial activity against vancomycin-resistant Enterococcus faecalis ATCC 51575 incubated for 24 hrs by microtiter plate method; format: functional
[7] = test system: Bacillus cereus; test: Antibacterial activity against Bacillus cereus ATCC 13061 incubated for 24 hrs by microtiter plate method; format: functional
[8] = test system: Streptococcus pneumoniae; test: Antibacterial activity against multidrug resistant […] ATCC 700677 incubated for 24 hrs by microtiter plate method; format: functional
[9] = test system: Escherichia coli; test: Antibacterial activity against Escherichia coli ATCC 25922 assessed as reduction in microbial growth after 24 hrs in presence of 6 mM of NH4Cl at by microtiter plate method; format: functional
[10] = test system: Staphylococcus aureus; test: Antibacterial activity against methicillin resistant Staphylococcus aureus ATCC BAA-1556 after 24 hrs in presence of fetal bovine serum by microtiter plate method; format: functional
[11] = test system: Acinetobacter baumannii; test: Antibacterial activity against ciprofloxacin resistance Acinetobacter baumannii ATCC BAA1605 incubated for 24 hrs by microtiter plate method; format: functional
[12] = test system: Staphylococcus aureus; test: Antibacterial activity against methicillin resistant Staphylococcus aureus ATCC BAA-1556 incubated for 24 hrs by microtiter plate method; format: functional; details: Staphylococcus aureus, ATCC BAA-1556, 24 h, read-out: MIC
[13] = test system: Klebsiella pneumoniae; test: Antibacterial activity against Klebsiella pneumoniae ATCC 13883 […] incubated for 24 hrs by microtiter plate method; format: functional
[14] = test system: Escherichia coli; test: Antibacterial activity against Escherichia coli ATCC 25922 after 24 hrs in presence of fetal bovine serum by microtiter plate method; format: functional
[15] = test system: Escherichia coli; test: Bactericidal activity against Escherichia coli ATCC BAA-2452 assessed as reduction of bacterial growth at MIC by counting formed colonies; format: functional, organism-based; details: time <= 4.0 hrs, TDE = time-dependent effect
[16] = test system: Staphylococcus aureus; test: Antibacterial activity against Staphylococcus aureus ATCC 29213 incubated for 24 hrs by microtiter plate method; format: functional; details: Staphylococcus aureus, ATCC 29213, read-out: MIC
[17] = test system: Staphylococcus aureus; test: Antibacterial activity against methicillin resistant Staphylococcus aureus ATCC BAA-1556 after 24 hrs in presence of 2 mM of CaCl2 by microtiter plate method; format: functional
[18] = test system: Escherichia coli; test: Antibacterial activity against Escherichia coli ATCC 25922 after 24 hrs in presence of 4.5 mM of KCl at by microtiter plate method; format: functional
[19] = test system: Staphylococcus aureus; test: Antibacterial activity against methicillin resistant Staphylococcus aureus ATCC BAA-1556 incubated for 24 hrs; format: functional
[20] = test system: Pseudomonas aeruginosa; test: Antibacterial activity against Pseudomonas aeruginosa ATCC 10145 incubated for 24 hrs by microtiter plate method; format: functional
[21] = test system: Staphylococcus aureus; test: Antibacterial activity against methicillin resistant Staphylococcus aureus ATCC BAA-1556 after 24 hrs in presence of 4.5 mM of KCl by microtiter plate method; format: functional
[22] = test system: Staphylococcus aureus; test: Antibacterial activity against methicillin resistant Staphylococcus aureus ATCC BAA-1556 after 24 hrs in presence of 6 mM of NH4Cl by microtiter plate method; format: functional
[23] = test system: Escherichia coli; test: Antibacterial activity against Escherichia coli ATCC 25922 after 24 hrs in presence of 150 mM NaCl by microtiter plate method; format: functional
[24] = test system: Escherichia coli; test: Antibacterial activity against Escherichia coli ATCC 25922 after 24 hrs in presence of 2 mM CaCl2 at by microtiter plate method; format: functional
[25] = test system: Staphylococcus aureus; test: Antibacterial activity against methicillin resistant Staphylococcus aureus ATCC BAA-1556 after 24 hrs in presence of 1 mM of by microtiter plate method; format: functional
[26] = test system: Pseudomonas aeruginosa; test: Antibacterial activity against Pseudomonas aeruginosa ATCC 27883 incubated for 24 hrs by microtiter plate method; format: functional; details: Pseudomonas aeruginosa
[27] = test system: Escherichia coli; test: Bactericidal activity against Escherichia coli ATCC BAA-2452 assessed as reduction of bacterial growth at 4 times MIC by counting formed colonies; format: functional, organism-based; details: time <= 4.0 hrs, TDE = time-dependent effect
[28] = test system: Staphylococcus aureus; test: Bactericidal activity against methicillin resistant Staphylococcus aureus ATCC BAA-1556 assessed as reduction of bacterial growth at 4 times MIC by counting formed colonies; format: functional, organism-based; details: time <= 4.0 hrs, TDE = time-dependent effect
[29] = test system: Staphylococcus aureus; test: Bactericidal activity against methicillin resistant Staphylococcus aureus ATCC BAA-1556 assessed as time required for complete reduction of bacterial growth at 4 times MIC by counting formed colonies; format: functional
[30] = test system: Staphylococcus aureus; test: Antibacterial activity against methicillin resistant Staphylococcus aureus ATCC BAA-1556 after 24 hrs in presence of 150 mM of NaCl by microtiter plate method; format: functional
[31] = test system: Staphylococcus aureus; test: Bactericidal activity against methicillin resistant Staphylococcus aureus ATCC BAA-1556 assessed as reduction of bacterial growth at MIC by counting formed colonies; format: functional, organism-based; details: time <= 4.0 hrs, TDE = time-dependent effect
[32] = test system: Staphylococcus aureus; test: Bactericidal activity against methicillin resistant Staphylococcus aureus ATCC BAA-1556 assessed as time required for complete reduction of bacterial growth at MIC by counting formed colonies; format: functional
[33] = test system: Klebsiella pneumoniae; test: Antibacterial activity against carbapenem-resistant Klebsiella pneumoniae ATCC BAA-2470 incubated for 24 hrs by microtiter plate method; format: functional
[34] = test system: Escherichia coli; test: Antibacterial activity against Escherichia coli ATCC 25922 incubated for 24 hrs; format: functional
[35] = test system: Pseudomonas aeruginosa; test: Antibacterial activity against imipenem resistant Pseudomonas aeruginosa ATCC BAA-1744 incubated for 24 hrs by microtiter plate method; format: functional
[36] = test system: Escherichia coli; test: Antibacterial activity against Escherichia coli ATCC 25922 incubated for 24 hrs by microtiter plate method; format: functional; details: Escherichia coli, ATCC 25922, 24 h, read-out: MIC
[37] = Hemolytic activity in human RBC assessed as hemolysis incubated for 2 hrs by spectrophotometer analysis; format: toxicity, cell-based, Erythrocyte; details: human red blood cells (erythrocytes)
[38] = ATCC 27883, 24 h, read-out: MIC

With CN[C@H](CC(C)C)C(=O)N[C@H]1C(=O)N[C@@H](CC(N)=O)C(=O)N[C@H]2C(=O)N[C@H]3C(=O)N[C@H](C(=O)N[C@H](C(=O)O)c4cc(O)cc(O)c4-c4cc3ccc4O)[C@H](O)c3ccc(c(Cl)c3)Oc3cc2cc(c3O[C@@H]2O[C@H](CO)[C@@H](O)[C@H](O)[C@H]2O[C@H]2C[C@](C)(N)[C@H](O)[C@H](C)O2)Oc2ccc(cc2Cl)[C@H]1O [VANCOMYCIN] the MIC [1] was > 50 µg/mL, the MIC [2] was 0.7 µg/mL (≈ 0.483 µM) and the MIC [3] was 1.5 µg/mL (≈ 1.04 µM). For the same compound, the MIC [4] was 0.7 µg/mL (≈ 0.483 µM), the MIC [5] was 3.1 µg/mL (≈ 2.14 µM) and the MIC [6] was > 50 µg/mL. It also gave an MIC [7] of 0.7 µg/mL (≈ 0.483 µM) and an MIC [8] of 1.5 µg/mL (≈ 1.04 µM).

Work on O=C(O)c1cn(C2CC2)c2cc(N3CCNCC3)c(F)cc2c1=O [CIPROFLOXACIN] yielded an MIC [9] of 0.3 µg/mL, an MIC [10] of 1.5 µg/mL and an MIC [11] of 0.7 µg/mL (≈ 2.11 µM). For the same compound, the MIC [12] was 3.1 µg/mL (≈ 9.36 µM), the MIC [13] was 1.5 µg/mL (≈ 4.53 µM) and the MIC [14] was 0.3 µg/mL. The Activity [15] was “Tde”, the MIC [16] was 1.5 µg/mL (≈ 4.53 µM) and the MIC [17] was 1.5 µg/mL. It also gave an MIC [18] of 0.3 µg/mL, an MBC [19] of 50 µg/mL (≈ 151 µM) and an MIC [20] of 0.7 µg/mL (≈ 2.11 µM). It also gave an MIC [21] of 1.5 µg/mL, an MIC [22] of 0.7 µg/mL and an MIC [23] of 0.3 µg/mL. It also gave an MIC [24] of 0.3 µg/mL, an MIC [25] of 1.5 µg/mL and an MIC ([26]; ATCC 27883, read-out: MIC) of 0.7 µg/mL (≈ 2.11 µM). The Activity [27] was “Tde”, the Activity [28] was “Tde” and the Activity [29] was “Active”. The MIC [30] was 1.5 µg/mL, the Activity [31] was “Tde” and the Activity [32] was “Active”. The MIC [33] was 0.7 µg/mL (≈ 2.11 µM), the MBC [34] was 12.5 µg/mL (≈ 37.7 µM) and the MIC [35] was 0.7 µg/mL (≈ 2.11 µM).

Work on N=C(N)NCCC[C@@H]1NC(=O)[C@H](CCCNC(=N)N)NC(=O)[C@H](CCCNC(=N)N)NC(=O)[C@H](Cc2ccc3ccccc3c2)NC(=O)[C@H](Cc2ccc3ccccc3c2)NC(=O)[C@H](Cc2ccc3ccccc3c2)NC(=O)[C@H](CCCNC(=N)N)NC(=O)[C@H](CCCNC(=N)N)NC1=O (cyclo([2Nal][2Nal][2Nal]RRRRR)) yielded an MIC [12] of 6.2 µg/mL (≈ 4.52 µM), an MIC [16] of 3.1 µg/mL (≈ 2.26 µM) and an MIC [36] of 50 µg/mL (≈ 36.4 µM). For the same compound, the HC50 at 2 h [37] was 90 µg/mL and the MIC [26, 38] was 25 µg/mL (≈ 18.2 µM).

N=C(N)NCCC[C@@H]1NC(=O)[C@H](CCCNC(=N)N)NC(=O)[C@H](CCCNC(=N)N)NC(=O)[C@H](C(c2ccccc2)c2ccccc2)NC(=O)[C@H](C(c2ccccc2)c2ccccc2)NC(=O)[C@H](CCCNC(=N)N)NC1=O (cyclo([Dip][Dip]RRRR)) gave an MIC [12] of 6.2 µg/mL (≈ 5.79 µM), an MIC [16] of 6.2 µg/mL (≈ 5.79 µM) and an MIC [36] of 50 µg/mL (≈ 46.7 µM). The HC50 at 2 h [37] was 110 µg/mL and the MIC [26, 38] was 25 µg/mL (≈ 23.3 µM).

With N=C(N)NCCC[C@@H]1NC(=O)[C@H](CCCNC(=N)N)NC(=O)[C@H](Cc2ccc3ccccc3c2)NC(=O)[C@H](Cc2ccc3ccccc3c2)NC(=O)[C@H](CCCNC(=N)N)NC(=O)[C@H](CCCNC(=N)N)NC(=O)[C@H](Cc2ccc3ccccc3c2)NC1=O (stereo in doubt; 18C) the MIC [12] was 6.2 µg/mL (≈ 5.1 µM), the MIC [16] was 6.2 µg/mL (≈ 5.1 µM) and the MIC [36] was 25 µg/mL (≈ 20.6 µM). For the same compound, the HC50 at 2 h [37] was 105 µg/mL and the MIC [26, 38] was > 100 µg/mL.

With N=C(N)NCCC[C@H](NC(=O)[C@H](CCCNC(=N)N)NC(=O)[C@H](CCCNC(=N)N)NC(=O)[C@@H](N)CCCNC(=N)N)C(=O)N[C@@H](Cc1ccc2ccccc2c1)C(=O)N[C@@H](Cc1ccc2ccccc2c1)C(=O)N[C@@H](Cc1ccc2ccccc2c1)C(=O)N[C@@H](Cc1ccc2ccccc2c1)C(=O)O (H-RRRR[2Nal][2Nal][2Nal][2Nal]-OH) the MIC [12] was 12.5 µg/mL (≈ 8.73 µM), the MIC [16] was 12.5 µg/mL (≈ 8.73 µM) and the MIC [36] was 50 µg/mL (≈ 34.9 µM). For the same compound, the HC50 at 2 h [37] was 70 µg/mL and the MIC [26, 38] was > 100 µg/mL.
